Assay: xn = mol fraction of the nth substance listed
Conditions: Liquid, Vibrating tube method

CCC(=O)c1ccccc1 [ethyl phenyl ketone] + Cc1ccccc1
mass density [kg/m3]
Conditions	x2 = 0	x2 = 0.1048	x2 = 0.2025	x2 = 0.3006	x2 = 0.3991	x2 = 0.4998	x2 = 0.6004	x2 = 0.7036	x2 = 0.8028	x2 = 0.902
318.15 K, 100 kPa	988.3	976.2	965	952.8	940	926.14	911.27	895.5	879.2	861.9
318.15 K, 2130 kPa	989.6	977.6	966.4	954.3	941.4	927.61	912.78	897	880.8	863.6
318.15 K, 4150 kPa	990.9	978.9	967.7	955.6	942.8	929.03	914.26	898.5	882.4	865.2
318.15 K, 6180 kPa	992.1	980.1	969	956.9	944.1	930.44	915.7	900	883.9	866.8
318.15 K, 8210 kPa	993.3	981.4	970.2	958.2	945.5	931.83	917.14	901.5	885.4	868.4
318.15 K, 10230 kPa	994.6	982.7	971.5	959.5	946.8	933.2	918.57	903	886.9	870
318.15 K, 11250 kPa	995.2	983.3	972.1	960.1	947.5	933.86	919.25	903.7	887.7	870.7
318.15 K, 12260 kPa	995.8	983.9	972.8	960.8	948.1	934.53	919.93	904.4	888.4	871.5
318.15 K, 14290 kPa	997	985.1	974	962	949.4	935.85	921.32	905.8	889.8	873
318.15 K, 16310 kPa	998.1	986.3	975.2	963.3	950.7	937.19	922.68	907.2	891.3	874.5
318.15 K, 18340 kPa	999.3	987.5	976.4	964.5	952	938.52	924.03	908.6	892.7	876
318.15 K, 20370 kPa	1000.4	988.7	977.6	965.7	953.2	939.75	925.33	909.9	894.1	877.4
318.15 K, 22390 kPa	1001.6	989.9	978.8	967	954.5	941.04	926.66	911.2	895.5	878.9
318.15 K, 24420 kPa	1002.7	991	980	968.1	955.7	942.28	927.93	912.5	896.8	880.3
318.15 K, 26450 kPa	1003.8	992.1	981.1	969.3	956.8	943.5	929.18	913.8	898.2	881.6
318.15 K, 28470 kPa	1004.9	993.3	982.2	970.5	958	944.7	930.43	915.1	899.5	883
318.15 K, 29490 kPa	1005.5	993.8	982.8	971.1	958.6	945.34	931.09	915.7	900.1	883.7
318.15 K, 30500 kPa	1006	994.4	983.4	971.6	959.2	945.93	931.69	916.4	900.8	884.3
318.15 K, 32530 kPa	1007.1	995.5	984.5	972.8	960.4	947.12	932.92	917.6	902.1	885.7
318.15 K, 34550 kPa	1008.2	996.6	985.6	973.9	961.5	948.29	934.11	918.8	903.3	887
318.15 K, 36580 kPa	1009.2	997.7	986.7	975	962.7	949.45	935.3	920	904.6	888.3
318.15 K, 38600 kPa	1010.3	998.7	987.8	976.1	963.7	950.58	936.48	921.2	905.8	889.5
318.15 K, 39620 kPa	1010.8	999.3	988.3	976.6	964.3	951.19	937.08	921.9	906.4	890.2
328.15 K, 100 kPa	979.6	967.8	956.5	944.4	931.4	917.54	902.56	886.7	870.2	852.8
328.15 K, 2130 kPa	981.1	969.1	957.8	945.7	932.8	918.96	904.06	888.3	871.8	854.5
328.15 K, 4150 kPa	982.4	970.5	959.2	947.1	934.3	920.45	905.6	889.9	873.5	856.2
328.15 K, 6180 kPa	983.7	971.8	960.5	948.5	935.7	921.95	907.14	891.5	875.1	857.9
328.15 K, 8210 kPa	985	973.1	961.8	949.9	937.1	923.37	908.63	893	876.7	859.6
328.15 K, 10230 kPa	986.2	974.5	963.2	951.2	938.5	924.82	910.11	894.5	878.3	861.2
328.15 K, 11250 kPa	986.9	975.1	963.8	951.9	939.2	925.52	910.85	895.3	879	862
328.15 K, 12260 kPa	987.5	975.7	964.5	952.5	939.9	926.2	911.57	896	879.8	862.8
328.15 K, 14290 kPa	988.7	977	965.8	953.9	941.2	927.61	913.02	897.5	881.4	864.5
328.15 K, 16310 kPa	990	978.3	967.1	955.2	942.6	928.98	914.44	898.9	882.9	866
328.15 K, 18340 kPa	991.2	979.5	968.3	956.5	943.9	930.34	915.83	900.4	884.4	867.6
328.15 K, 20370 kPa	992.3	980.8	969.6	957.7	945.2	931.69	917.22	901.8	885.8	869.1
328.15 K, 22390 kPa	993.5	982	970.8	959	946.5	933.04	918.61	903.2	887.3	870.6
328.15 K, 24420 kPa	994.7	983.2	972	960.2	947.7	934.34	919.95	904.6	888.7	872
328.15 K, 26450 kPa	995.9	984.4	973.2	961.5	949	935.61	921.26	905.9	890.1	873.5
328.15 K, 28470 kPa	997.1	985.6	974.5	962.7	950.2	936.91	922.59	907.2	891.5	874.9
328.15 K, 29490 kPa	997.6	986.2	975	963.3	950.8	937.56	923.26	908	892.2	875.7
328.15 K, 30500 kPa	998.2	986.7	975.6	963.9	951.5	938.18	923.89	908.6	892.9	876.4
328.15 K, 32530 kPa	999.3	987.9	976.8	965.1	952.7	939.41	925.17	909.9	894.2	877.7
328.15 K, 34550 kPa	1000.4	989	978	966.2	953.9	940.65	926.43	911.2	895.6	879.1
328.15 K, 36580 kPa	1001.5	990.2	979.1	967.4	955.1	941.85	927.68	912.5	896.9	880.4
328.15 K, 38600 kPa	1002.6	991.3	980.3	968.6	956.2	943.07	928.95	913.7	898.2	881.8
328.15 K, 39620 kPa	1003.2	991.9	980.8	969.1	956.9	943.64	929.53	914.4	898.8	882.4

Source: the NIST ThermoML archive (doi:10.1016/j.jct.2004.10.011)
